Assay in all cases: DTP human tumour cell line panel, 48 h
Assay [1] concerns MCF7 breast.
The test system of assay [2] is SK-OV-3 ovarian.
In assay [3] the test system is HT29 colon.
For assay [4], the system named is SK-MEL-28 melanoma.
For assay [5], the system named is HCT-116 colon.
Assay [6] has as its system UACC-257 melanoma.
Assay [7] has as its system DU-145 prostate.
Assay [8] concerns T-47D breast.
Assay [9] concerns SNB-75 CNS.
For assay [10], the system named is NCI-H23 lung.

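Tested at 5 concentrations; 48 h exposure; 96-well plates; endpoints linearly interpolated, else capped at highest concentration. Here, GI50 denotes the concentration required for 50% inhibition of growth. TGI: concentration producing complete growth inhibition.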 Bounds are passed on as bounds.

By TGI is commonly meant the concentration at which net growth stops. High values mean less potent growth arrest, low ones more potent growth arrest. As usually defined, the GI50 is the concentration that inhibits growth by half.

Regarding `S=C1c2ccccc2NC(=NC2CCCC2)C2CSCN12` (stereo not drawn), the TGI in assay [1], in assay [2], in assay [3], in assay [4], in assay [5] and in assay [6] was over 100 µM throughout. Further, the TGI in [7] and in [8] was over 100 µM in each case.
As for `Cc1c(-c2c(C)c3ccccc3n2S(=O)(=O)c2ccccc2)n(S(=O)(=O)c2ccccc2)c2ccccc12`, the TGI is over 31.6 µM in [9]; over 100 µM in assay [1]; over 100 µM in assay [2]; over 100 µM in assay [3]; over 100 µM in assay [4]; over 100 µM in [5]. Also, the TGI in [6] is over 100 µM; in assay [10], over 100 µM; in assay [7] it was over 33.5 µM.
With `COC(=O)CCCc1ccc2c(c1)CC1(C2)Cc2cc3c(cc2C1)CCCC3`, the TGI is over 100 µM in [1]; over 100 µM in [2]; over 100 µM in [3]; 15.9 µM in [5]; over 100 µM in [6]; over 100 µM in assay [10]. In assay [8], this molecule yielded a TGI of over 100 µM.
As for `O=C(CSc1nc2ccccc2[nH]1)Nc1ccc(-c2nc3ccccc3s2)c(Cl)c1`, the GI50 is 6.58 µM in assay [9]; 3.58 µM in assay [1]; 2.72 µM in [2]; 4.79 µM in assay [3]; 2.73 µM in [4]; 4.08 µM in assay [6]. For the same molecule, the GI50 was 1.88 µM in assay [10] and 1.71 µM in assay [8]. Also, the TGI was over 100 µM in assay [9]; over 100 µM in assay [1]; 12 µM in [2]; over 100 µM in assay [3]; 7.59 µM in assay [4]; over 100 µM in assay [6]. Further, the TGI was determined as 4.27 µM in assay [10] and 6.05 µM in assay [8].
With `CC(=O)C1CC(C)=CCC12C(=O)Nc1ccccc12` (stereo not drawn), the TGI in assay [9], in assay [2], in assay [3], in [4], in [5] and in assay [10] was over 100 µM each time.
As for `Cc1ccc(C(=O)N(C2CCCCC2)C2CCCCC2)cc1N=NN(C)C`, the TGI in assay [1] is 29.7 µM; in [2], 33.5 µM; in assay [3], 16.6 µM; in assay [4] it was 17.9 µM; in [5] it was 27.8 µM; in [6], 28 µM. The TGI is 27.9 µM in assay [10] and 38.7 µM in assay [8].
`O=C(c1ccc(Cl)cc1)c1ccc(OCC(=O)N2CCN(c3ccccc3)CC2)cc1`: the TGI in assay [9], in [2], in assay [3], in assay [4], in [5] and in assay [6] was over 100 µM each time. The molecule also displayed a TGI in assay [10] of over 100 µM.
Regarding `COc1ccc2c3c1OC1CC(O)C=CC31CCN(C)C2` (stereo not drawn), the TGI is over 150 µM in assay [9]; over 48.8 µM in assay [1]; over 150 µM in [2]; over 150 µM in [3]; over 150 µM in [4]; over 150 µM in [5]. The concentration for total growth inhibition (TGI) in [6] and in [10] was over 150 µM throughout.
For `c1ccc2c(-c3cnc(-c4c[nH]c5ccccc45)cn3)c[nH]c2c1`, the TGI in assay [9] is 94.4 µM; in assay [1] it was over 100 µM; in assay [2] it was over 100 µM; in [4], over 100 µM; in assay [5], 94.2 µM; in assay [6] it was over 100 µM. The TGI in assay [10], in [7] and in assay [8] was over 100 µM in each case.
With `Cc1ccc(C)n2c1nc1ccc3ccccc3c12`, the TGI was 86 µM in [9]; over 100 µM in assay [1]; over 100 µM in assay [2]; over 100 µM in assay [3]; over 100 µM in assay [4]; over 100 µM in assay [6]. The TGI in assay [10], in [7] and in assay [8] was over 100 µM throughout.
Regarding `CC(=O)Oc1ccc(/C=C/C(=O)O[C@@H](C)[C@H](C)OC(=O)/C=C/c2ccc(OC(C)=O)c(OC(C)=O)c2)cc1OC(C)=O`, the TGI in assay [9] is over 100 µM; in [1] it was over 100 µM; in assay [2], 77.2 µM; in assay [4] it was 77.7 µM; in assay [5] it was over 100 µM; in assay [6] it was 65.1 µM. Moreover, the results for the TGI in [10], in assay [7] and in assay [8] were 25.8 µM, over 100 µM and 61.2 µM, respectively.
Consider `CCOC(=O)/C(=C\NCC(O)c1ccccc1)c1nc2ccccc2[nH]1` (stereo not drawn), for which the TGI in [9] was 58.2 µM; in [1], 69 µM; in assay [2], over 100 µM; in [3] it was 56.7 µM; in assay [4], 39.6 µM; in assay [5] it was 86.3 µM. Also, the TGI in assay [6] is 42.5 µM; in assay [10], 59.6 µM; in [7] it was over 100 µM.
Turning to `CCCCOC(=O)C(=O)C(CCC(=O)c1ccc(C)cc1)C(=O)C=C(C)C` (stereo not drawn), the TGI in assay [9], in assay [1], in [2], in [3], in assay [4] and in [5] was over 100 µM each time. Moreover, the TGI in [6], in assay [10] and in assay [8] was over 100 µM each time.
For the molecule `COc1ccc2[nH]c3c(c2c1)CCN(C)CC3`, the TGI in assay [9], in [2], in assay [3], in assay [4], in assay [5] and in assay [6] was over 100 µM each time. Also, the TGI in [10] was over 100 µM.
For `CC(=O)OC[C@H]1O[C@@H](O[C@H]2[C@H](OC(C)=O)C=CO[C@@H]2COC(C)=O)C(OC(C)=O)[C@H]2OC(C)(C)O[C@H]21` (stereo partly drawn), the TGI in [9] was 87.3 µM; in [1] it was over 100 µM; in assay [2], over 100 µM; in [3], over 100 µM; in assay [4], over 100 µM; in assay [5], over 100 µM. For the same molecule, the TGI in assay [6], in [10] and in [8] was over 100 µM throughout.
`CCCCOC(=O)CNC(=O)OCCCCC#CC#CCCCCOC(=O)NCC(=O)OCCCC`: the TGI in assay [9], in [2], in [3], in [5], in assay [6] and in assay [10] was over 100 µM throughout.
Take `Oc1ccc(Cl)cc1C1=N/C(=N\CN2CCN(C/N=C3/N=C(c4cc(Cl)ccc4O)CC(c4ccccc4)N3)CC2)NC(c2ccccc2)C1` (stereo not drawn): the TGI in [9] was 96.8 µM; in assay [1], over 100 µM; in assay [2] it was over 100 µM; in assay [3], over 100 µM; in assay [4], over 100 µM; in assay [5] it was 46.3 µM. In addition, the TGI in assay [6], in assay [10] and in assay [7] was over 100 µM throughout.
With `COC1=CC(=O)c2ccccc2C1(CCC=C(C)C)C1=NC(C)(C)CO1` (stereo not drawn), the TGI in assay [9], in assay [2], in assay [3], in assay [4], in assay [5] and in assay [6] was over 100 µM in each case. The concentration for total growth inhibition (TGI) in assay [10] was over 100 µM.
As for `CCOC/N=C(/N)NC#N`, the TGI in [9], in assay [2], in assay [3], in assay [4], in assay [5] and in assay [6] was over 100 µM in each case. In assay [10], this molecule had a concentration for total growth inhibition (TGI) of over 100 µM.
Turning to `Cc1ccc2[nH]cc(-c3nc(-c4c[nH]c5ncccc45)cs3)c2c1`, the GI50 in assay [9], in assay [1], in assay [2], in assay [4], in assay [5] and in assay [6] was over 100 µM throughout. For the same molecule, the GI50 in [10] and in assay [8] was over 100 µM each time. Moreover, the TGI in [9], in assay [1], in assay [2], in [4], in assay [5] and in [6] was over 100 µM throughout. Besides, the TGI in assay [10] and in [8] was over 100 µM each time.
Regarding `N#CC1=C2Sc3ccccc3N2[C@H](c2ccccc2)[C@H]2COC(=O)[C@@H]12`, the TGI was 97.1 µM in assay [9]; over 100 µM in [1]; over 100 µM in assay [2]; over 100 µM in [4]; over 100 µM in assay [5]; over 100 µM in assay [6]. The TGI in [10], in assay [7] and in assay [8] was over 100 µM each time.
As to `COc1ccc(CCn2cnc3ccccc32)cc1`, the total growth inhibition concentration (TGI) in [9], in assay [1], in [2], in assay [3], in assay [5] and in assay [6] was over 100 µM each time. Also, the TGI in assay [10] and in [7] was over 100 µM each time.
Consider `COc1cccc2cc(C)c(C(=O)c3ccccc3)nc12`, for which the TGI in assay [9], in [4], in assay [5], in assay [6] and in assay [10] was over 100 µM in each case.
For the molecule `N/N=C(\C(=O)Nc1c(Cl)cc([N+](=O)[O-])cc1Cl)C(c1cnc2ccc([N+](=O)[O-])cc2n1)[N+](=O)[O-]` (stereo not drawn), the concentration for total growth inhibition (TGI) in [9], in [2], in assay [3], in assay [4], in [5] and in assay [6] was over 100 µM throughout. This molecule showed a total growth inhibition concentration (TGI) in assay [10] of over 100 µM.
In the case of `CCC(C)[C@H](NC(=O)N[C@H](C)c1ccccc1)C(=O)OC` (stereo partly drawn), the TGI in [9], in assay [1], in assay [2], in [3], in assay [4] and in [5] was over 100 µM in each case. The TGI in [6], in assay [10] and in assay [7] was over 100 µM in each case.
As for `CC1(C)OC2OC(COC(=O)C=[N+]=[N-])C3OC(C)(C)OC3C2O1` (stereo not drawn), the TGI in assay [1], in assay [2], in assay [3], in [4], in assay [5] and in [6] was over 100 µM each time. Besides, the TGI in assay [10] and in [7] was over 100 µM throughout.
With `CCCCCc1cc(OC(=O)c2c(O)cc(OC)cc2CCCCC)cc(O)c1C(=O)O`, the TGI in assay [9] stood at 32.5 µM; in assay [2], 31.5 µM; in [3], 29.9 µM; in [4], 32.9 µM; in assay [10], 27.1 µM.
Turning to `COc1cc(OC)c2c(O)cc(CC(C)O)cc2c1` (stereo not drawn), the TGI in assay [9], in assay [2], in [3], in assay [4], in [5] and in assay [6] was over 100 µM throughout. In assay [10], the TGI was over 100 µM.
`O=C1C(Br)=CC2([N+](=O)[O-])CCNc3c(O)c4c5c(c3C2=C1Br)=NCCC=5C=N4` (stereo not drawn): the TGI in [9] is 20.5 µM; in assay [1], 1.72 µM; in [2], 13.3 µM; in assay [3] it was 7.24 µM; in [4], 9.95 µM; in [5], 1.09 µM. The TGI in assay [6] was 0.887 µM; in assay [10] it was 3.41 µM.
For `CCC(CCCN)Nc1cc(OC)cc2cccnc12` (stereo not drawn), the TGI in assay [9], in assay [1], in assay [2], in assay [3], in [4] and in assay [5] was over 100 µM each time. Besides, the TGI is 62.8 µM in [6] and over 100 µM in assay [7].
With `CC1=NOC2(C1)/C(=N/O)CCC/C2=N\O` (stereo not drawn), the TGI in assay [9], in assay [1], in [2], in assay [3], in assay [4] and in [5] was over 100 µM in each case. For the same molecule, the TGI in assay [6], in assay [10] and in [8] was over 100 µM each time.

Values taken from PubChem BioAssay (NCI).
